One experiment has as its target T1, hLigI (Homo sapiens, UniProt P18858).
T1 construct: made in house
Kind of experiment: High-throughput fluorescence-based DNA joining (ligation) assay. The following applies: for inhibition of hLigI (DNA ligase I), in words: in vitro screen, 100 μmol/L, the 15 hLigI inhibitors inhibited by >50%. The format is biochemical. The procedure:
(§1) Candidate ligase inhibitors identified by CADD were assayed for their ability to inhibit hLigI and T4 DNA ligase using a high-throughput, fluorescence energy transfer-based DNA joining assay (22). Duplicate reactions (30 μL) containing 10 pmol of nicked DNA substrate and either 0.25 pmol of hLigI or 10 units of T4 DNA ligase were incubated in the presence or absence of 100 μmol/L of the putative inhibitor. DNA binding by the candidate DNA ligase inhibitors was measured by displacement of ethidium bromide from DNA as previously described (30).
(§2) The method for screening compounds comprises testing the compound for the ability to inhibit human DNA ligases I, III and IV with a high throughput fluorescence-based ligation assay. In this assay, phosphodiester bond formation covalently links together two oligonucleotides, one of which is a fluorescent donor AF488 that is 11 nucleotides from the 3′ terminus and the other contains a fluorescence acceptor and quencher, BHQ1 that is 15 nucleotides from the 5′ terminus. When these oligonucleotides are present in separate duplexes and in the same nicked or intact duplex, there is no significant quenching of fluorescence because the donor and acceptor are too far apart. As single-strands neither the AF488 oligonucleotide nor the BHQ1 oligonucleotides have significant secondary structure. However, when these oligonucleotides are ligated together, the resultant single strand forms a stable hairpin structure, in which the AF488 and BHQ1 groups are very close together, resulting in efficient intra-molecular quenching of fluorescence. Thus, in the DNA joining assay, the DNA substrate is denatured after incubation with the DNA ligase and then renatured in the presence of a 20-fold excess of an oligonucleotide that is identical to the ligated strand containing the fluorescent door and acceptor except that it lacks these modifications. Using this assay, DNA joining, which results in reduced fluorescence at 518 nm, can be measured rapidly, quantitatively and with high-throughput using a fluorescence plate reader.
(§3) Applicants developed a novel high throughput fluorescence-based ligation assay by modifying the sequence of the oligos to optimize hairpin formation by the single strand ligated product of the high throughput fluorescence-based ligation assay of Chen et al (22). […] Compound stock solutions, which were 10 mM in 0.5% DMSO, were diluted in 0.5% DMSO. Human DNA ligases I and III were assayed with a nicked DNA substrate whereas as the substrate for human DNA ligase IV was two oligonucleotide duplexes with short complementary single strand ends.

Another experiment deals with T2, human DNA ligase III (Homo sapiens, UniProt P49916).
T2 sequence (P49916 1-862 isoform P49916-4): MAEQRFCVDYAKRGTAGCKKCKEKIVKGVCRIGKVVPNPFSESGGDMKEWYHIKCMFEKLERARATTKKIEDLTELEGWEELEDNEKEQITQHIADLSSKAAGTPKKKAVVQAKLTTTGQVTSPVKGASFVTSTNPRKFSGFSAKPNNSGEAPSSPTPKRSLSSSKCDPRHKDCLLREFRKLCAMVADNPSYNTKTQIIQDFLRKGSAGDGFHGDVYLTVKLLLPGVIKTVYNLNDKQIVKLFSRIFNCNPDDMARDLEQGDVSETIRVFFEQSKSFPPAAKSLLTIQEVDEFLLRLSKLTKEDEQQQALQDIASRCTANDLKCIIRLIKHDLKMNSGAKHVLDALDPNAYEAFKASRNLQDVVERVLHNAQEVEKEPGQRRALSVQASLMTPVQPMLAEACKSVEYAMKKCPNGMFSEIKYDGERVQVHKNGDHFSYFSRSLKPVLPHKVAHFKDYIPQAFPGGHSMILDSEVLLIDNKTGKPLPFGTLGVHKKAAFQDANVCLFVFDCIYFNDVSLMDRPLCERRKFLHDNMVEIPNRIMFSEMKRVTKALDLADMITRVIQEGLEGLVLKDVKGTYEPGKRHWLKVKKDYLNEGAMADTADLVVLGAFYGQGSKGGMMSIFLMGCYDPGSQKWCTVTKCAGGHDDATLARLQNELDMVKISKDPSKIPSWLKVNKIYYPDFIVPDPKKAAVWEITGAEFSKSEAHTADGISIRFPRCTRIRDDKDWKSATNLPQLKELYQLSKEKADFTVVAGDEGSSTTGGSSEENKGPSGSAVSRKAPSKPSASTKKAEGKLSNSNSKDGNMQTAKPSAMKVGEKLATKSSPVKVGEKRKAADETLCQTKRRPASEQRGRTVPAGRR
The experiment is described as above. The format is biochemical.
Source text: as §2, §3

The target of the next experiment is human DNA ligase IV (Homo sapiens, UniProt P49917). The experiment is described as above. The following applies: for % activity Inhibition hLigIV 100 uM: Ø not defined (0 in Table 5A); for inhibition at 100 µM: read-out: % of inhibition @ 100 μM (Helen's data) hLigIV. It is filed as biochemical.
Sequence of human DNA ligase IV (P49917 whole entry): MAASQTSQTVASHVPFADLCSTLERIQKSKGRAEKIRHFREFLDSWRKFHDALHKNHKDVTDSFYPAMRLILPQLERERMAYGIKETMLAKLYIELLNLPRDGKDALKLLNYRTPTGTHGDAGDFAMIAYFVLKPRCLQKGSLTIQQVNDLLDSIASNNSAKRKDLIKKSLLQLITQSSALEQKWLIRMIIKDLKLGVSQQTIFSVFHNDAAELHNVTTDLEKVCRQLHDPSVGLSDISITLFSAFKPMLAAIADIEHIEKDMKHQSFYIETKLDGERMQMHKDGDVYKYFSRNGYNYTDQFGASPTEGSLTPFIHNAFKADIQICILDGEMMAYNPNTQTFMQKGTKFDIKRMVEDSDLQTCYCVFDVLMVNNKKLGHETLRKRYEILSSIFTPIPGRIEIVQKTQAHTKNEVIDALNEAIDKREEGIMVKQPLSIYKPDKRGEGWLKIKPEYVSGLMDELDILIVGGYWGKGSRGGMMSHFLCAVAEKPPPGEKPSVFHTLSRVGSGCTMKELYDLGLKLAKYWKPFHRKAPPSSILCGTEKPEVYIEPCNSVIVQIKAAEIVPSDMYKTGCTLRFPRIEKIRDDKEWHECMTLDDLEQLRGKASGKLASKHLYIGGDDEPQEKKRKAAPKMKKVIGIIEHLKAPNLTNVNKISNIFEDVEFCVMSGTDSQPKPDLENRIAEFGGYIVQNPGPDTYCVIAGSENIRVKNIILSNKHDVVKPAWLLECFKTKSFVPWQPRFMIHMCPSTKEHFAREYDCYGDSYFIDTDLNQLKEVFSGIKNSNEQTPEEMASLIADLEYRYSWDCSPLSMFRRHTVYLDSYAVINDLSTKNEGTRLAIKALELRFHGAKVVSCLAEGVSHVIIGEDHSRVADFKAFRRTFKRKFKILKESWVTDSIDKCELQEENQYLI
Sequence of human DNA ligase IV (Q13426 whole entry partner): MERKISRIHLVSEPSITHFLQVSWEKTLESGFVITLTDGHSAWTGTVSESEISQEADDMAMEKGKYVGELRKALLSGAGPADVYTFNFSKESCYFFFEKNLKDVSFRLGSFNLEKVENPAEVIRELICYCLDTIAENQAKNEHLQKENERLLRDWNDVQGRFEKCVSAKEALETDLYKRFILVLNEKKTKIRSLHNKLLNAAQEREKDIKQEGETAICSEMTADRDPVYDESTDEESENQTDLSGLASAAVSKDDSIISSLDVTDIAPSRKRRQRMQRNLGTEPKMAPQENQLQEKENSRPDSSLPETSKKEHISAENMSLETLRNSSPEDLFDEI
Source text: as §2, §3

Another experiment deals with T3, T4 DNA ligase (Enterobacteria phage T4, UniProt P00970).
T3 construct: purchased NEB
T3 sequence (P00970 1-487): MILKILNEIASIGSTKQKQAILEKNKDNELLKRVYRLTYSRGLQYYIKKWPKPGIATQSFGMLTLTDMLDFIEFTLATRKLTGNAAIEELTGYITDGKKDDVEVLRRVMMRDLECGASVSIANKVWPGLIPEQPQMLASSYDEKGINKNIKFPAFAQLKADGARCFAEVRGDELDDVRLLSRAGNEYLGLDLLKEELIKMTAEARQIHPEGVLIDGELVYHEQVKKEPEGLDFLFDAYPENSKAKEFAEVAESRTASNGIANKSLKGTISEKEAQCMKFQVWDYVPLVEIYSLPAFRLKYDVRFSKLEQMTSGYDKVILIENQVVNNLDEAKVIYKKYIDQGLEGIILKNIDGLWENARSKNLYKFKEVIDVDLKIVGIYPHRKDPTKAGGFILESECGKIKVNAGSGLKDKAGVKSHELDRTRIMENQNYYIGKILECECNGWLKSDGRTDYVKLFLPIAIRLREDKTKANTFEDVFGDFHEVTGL
Briefly: High-throughput fluorescence-based DNA joining assay, non-specific inhibitor control. The format is biochemical, bacteriophage T4. The following applies: for inhibition at 100 µM: read-out: % activity Inhibition LigT4 100 uM. The procedure:
as §1
In addition, to identify compounds that may be non-specific inhibitors of DNA joining, the 192 compounds were also assayed for their ability to inhibit bacteriophage T4 DNA ligase, an enzyme that utilizes the same reaction mechanism as hLigI, has similar adenylation and OB-fold domains but lacks a DBD domain. (6) Although this is also an ATP-dependent DNA ligase, it lacks the domain containing the binding pocket targeted by the in silico screen. Compounds that inhibited T4 DNA ligase were eliminated as non-specific inhibitors that most likely bind to the DNA.

Where [1] appears, read: 100 uM, Ø not defined (0 in Table 5A).
Setting [2] is: 100 μM, read-out: % of inhibition @ 100 μM (Helen's data) hLigI.
[3] abbreviates: read-out: % of inhibition @ 100 μM (Helen's data) hLigIII.
[4] abbreviates: 100 uM, read-out: % activity Inhibition hLigI 100 uM.

The source of these data is patent US9757375B2, “Compounds that inhibit human DNA ligases and methods of treating cancer” (University of Maryland, Baltimore, priority 2007, dated 2017).

Where two headings read alike, the source gives them in different places. Where only a bound is given, the exact number is not on record here.

T1 sequence (P18858 whole entry): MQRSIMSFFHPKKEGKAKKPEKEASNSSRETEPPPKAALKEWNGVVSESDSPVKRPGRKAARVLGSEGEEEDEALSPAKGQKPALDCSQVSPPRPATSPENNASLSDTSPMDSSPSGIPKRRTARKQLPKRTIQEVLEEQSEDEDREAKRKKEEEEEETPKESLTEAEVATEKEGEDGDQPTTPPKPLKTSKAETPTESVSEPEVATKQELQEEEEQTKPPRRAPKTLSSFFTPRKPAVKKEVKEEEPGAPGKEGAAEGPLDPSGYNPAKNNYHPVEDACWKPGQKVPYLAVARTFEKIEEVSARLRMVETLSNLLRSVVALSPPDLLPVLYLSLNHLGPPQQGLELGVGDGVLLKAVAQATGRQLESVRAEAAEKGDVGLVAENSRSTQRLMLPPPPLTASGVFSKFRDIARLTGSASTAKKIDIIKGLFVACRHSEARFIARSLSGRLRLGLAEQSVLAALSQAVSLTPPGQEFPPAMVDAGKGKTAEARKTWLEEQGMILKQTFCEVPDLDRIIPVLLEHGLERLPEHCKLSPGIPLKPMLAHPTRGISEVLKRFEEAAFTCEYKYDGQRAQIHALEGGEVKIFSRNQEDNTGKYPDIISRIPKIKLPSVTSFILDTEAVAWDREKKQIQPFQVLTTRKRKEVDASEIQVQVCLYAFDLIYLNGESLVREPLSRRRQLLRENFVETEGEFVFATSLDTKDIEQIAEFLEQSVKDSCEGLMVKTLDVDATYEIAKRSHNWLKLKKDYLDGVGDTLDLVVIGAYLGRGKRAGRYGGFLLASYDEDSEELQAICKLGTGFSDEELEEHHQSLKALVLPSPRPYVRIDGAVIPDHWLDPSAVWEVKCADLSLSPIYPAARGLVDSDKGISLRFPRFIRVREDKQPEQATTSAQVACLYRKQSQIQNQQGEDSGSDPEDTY

`COC(=O)c1ccc(S(=O)(=O)O)o1` [Compound 55]: on hLigI (100 uM), the “% activity Inhibition hLigI 100 uM” value stood at 7.5 ± 9.3%. The “% activity Inhibition hLigIII 100 uM” value on human DNA ligase III (setting [1]) is listed as “Ø”. Further, the “% activity Inhibition hLigIV 100 uM” value at human DNA ligase IV is on record as “Ø”. The “% activity Inhibition LigT4 100 uM” value on T4 DNA ligase (100 uM) was 0.58 ± 3.1%.
In general, inhibition refers to the change of the read-out against control, counted positive when it falls. Consider `O=C(O)c1ccc([N+](=O)[O-])c(C(=O)O)n1` [Compound 212], for which the inhibition at 100 µM on hLigI (setting [2]), on human DNA ligase III (setting [3]) and on human DNA ligase IV was below 20% each time.
Take `COc1cccc(Cn2nnc(C(=O)O)c2C(=O)O)c1` [Compound 103]: the results for the inhibition at 100 µM at hLigI (setting [4]) and at T4 DNA ligase were 23.1 ± 1.8% and 6.2 ± 4.3%, respectively. Further, the “% activity Inhibition hLigIII 100 uM” value on human DNA ligase III (setting [1]) is given as “Ø”. The “% activity Inhibition hLigIV 100 uM” value at human DNA ligase IV is given as “Ø”.
Take `Cc1[nH]c2ccc(C(=O)O)cc2c1CC(=O)O` [Compound 35]: the inhibition at 100 µM at hLigI (setting [4]) is 38.7%; at T4 DNA ligase, 3.7 ± 2.3%. Moreover, at human DNA ligase III (setting [1]), the “% activity Inhibition hLigIII 100 uM” value is reported as “Ø”. For the same molecule, the “% activity Inhibition hLigIV 100 uM” value on human DNA ligase IV is “Ø”.
In the case of `COc1ccc(C(CC(=O)O)NC(=O)c2ccco2)cc1` (stereo not shown) [Compound 207], the inhibition at 100 µM on hLigI (setting [4]) was 20.7 ± 19%; on human DNA ligase III (100 uM, Ø not defined (0 in Table 5A), read-out: % activity Inhibition hLigIII 100 uM), 25.8 ± 10.7%; on T4 DNA ligase, 10 ± 2%. For the same molecule, the “% activity Inhibition hLigIV 100 uM” value on human DNA ligase IV was “Ø”.
Consider `Oc1nn(-c2ccc(Br)cc2)cc1Br` [Compound 221], for which the values for the inhibition at 100 µM on hLigI (setting [2]), on human DNA ligase III (setting [3]) and on human DNA ligase IV were above 20%, below 20% and below 20%, respectively.
Turning to `CCC(Nc1ncnc2ccccc12)C(=O)O` (stereo not shown) [Compound 51], the inhibition at 100 µM at hLigI (setting [4]) is 24.3 ± 13.5%; on T4 DNA ligase, 0%. For the same molecule, the “% activity Inhibition hLigIII 100 uM” value on human DNA ligase III (setting [1]) is “Ø”. The “% activity Inhibition hLigIV 100 uM” value on human DNA ligase IV is recorded as “Ø”.
Take `N#CCSc1nnc(SCC#N)s1` [Compound 123]: the “inhibition of hLigI (DNA ligase I), in words” value against hLigI is “inhibited hLigI”.
Still for that read-out and setting: in the case of `O=C(O)c1ccc2nccnc2c1` [Compound 175] it was “inhibited hLigI”.
As to `Sc1nccc(-c2cccnc2)n1` [Compound 130], the inhibition at 100 µM on hLigI (setting [2]), at human DNA ligase III (setting [3]) and on human DNA ligase IV was below 20% throughout.
